These are literature values, as cited in patent publication US10888535B2, “Skin disinfectant composition” (priority 2015, dated 2021).

In the case of `CCCCCCCCNC(=N)NC(=N)NCc1ccc(Cl)c(Cl)c1` [Olanexidine, 1-(3,4-dichlorobenzyl)-5-octylbiguanide], the solubility in water entry is recorded as “extremely insoluble in water”. For the molecule `CCCCCCCCN=C(N)NC(N)=NCc1ccc(Cl)c(Cl)c1.O=C(O)[C@H](O)[C@@H](O)[C@H](O)[C@H](O)CO` [gluconate of olanexidine], the solubility in water entry was “sufficient solubility in water”.
